Assay results: patent publication US20060241067A1, “Methods For inhibiting angiogenesis, cell migration, cell adhesion, and cell survival” (priority 2002, published 2006)

What was measured:
protein kinase A = assay: PKA activity assay in HUVECs; type: cell-based, human; conditions: for PKA activity in endothelial cells: 10 μM PTHrP or 250 μM dibutyryl cAMP
Procedure: PKA activity was measured in HUVECs essentially as previously described in Kim et al (S. Kim et al., Amer. J. Biol. Chem., 275:33920-33928 (02000)). HUVECs were placed in suspension, allowed to attach to ECM protein coated plates in the absence or presence of anti-integrin antibodies or were treated with 10 μM PTHrP and/or 250 μM cAMP. PKA activity was measured at various times from 0-4 hrs (e.g., 2-30 min).
Plates were washed and blocked in 3% bovine serum albumin for 1 hour at 37° C. HUVECS were trypsinized and resuspended in adhesion buffer (Hanks balanced salt solution supplemented with 10 mM HEPES, pH 7.4, 2 mM MgCl2, 2 mM CaCl2, 0.2 mM MnCl2, 1% BSA. Cells were plated on matrix protein coated plates in culture medium or in the presence of 25 μg/ml anti-α5β1, anti-αvβ3 or anti-α2β1 antibodies for various times from 0 minutes to 4 hours. Plates were washed with phosphate buffered saline and cells were extracted with cold extraction buffer (50 mM Tris, pH 7.5, 5 mM EDTA, 25 μg/ml aprotinin and 25 μg/ml leupeptin). Protein Kinase A activity was assessed using a kit from Gibco BRL. Briefly, equal volumes of lysate and reaction mixture containing final concentrations of 50 mM Tris, pH 7.5, 10 mM MgCl2, 0.25 mg/ml BSA, 50 μM Kemptide (a protein kinase A substrate), 3000 Ci/mmol (γ^32 P) ATP and 100 μM ATP were combined for 5 minutes at 30° C. Total PKA in each sample was measured by performing the assay in the presence of 10 μM cAMP. Background PKA activity in test and total PKA samples were determined by performing the assay in the presence of a PKA inhibitor peptide, PKI (6-22) amide. Twenty μl samples of reaction mixtures were spotted onto phosphocellulose discs and washed repeatedly with 1% (v/v) phosphoric acid in water. Incorporated radioactivity was determined by scintillation counting. Activated PKA was calculated from the ratio of pmol/min test sample PKA to pmol/min total PKA. PKA activity in triplicate samples was measured and experiments were repeated at least three times.
In another embodiment, PKA assays were performed with a kit from Calbiochem (San Diego, Calif.). Cell lysates were incubated in ELISA plates coated with a PKA peptide substrate, then incubated with anti-phosphoserine antibodies. Bound antibody was detected after incubation with anti-rabbit IgG-horse radish peroxidase. Statistical analyses were performed using Student's t-test.

HUVECS = assay: Annexin V-FITC staining of HUVECs (apoptosis); type: cell-based, human; conditions: cells on vitronectin, PTHrP, 250 μM dibutyryl cAMP or transfection
Procedure: Plates were also coated with […] goat anti-mouse IgG (Southern Biotechnology Associates, Inc., Birmingham, Ala.) at 37° C. for 2 h, rinsed, blocked with denatured BSA, and then incubated with […] anti-a5b1 or control IgG (anti-MHC) at 4° C. for 16 hrs. HUVECs were incubated on plates in the presence or absence of 10 mg/ml anti-α5β1, -αvβ3, -α2β1, or -MHC for 0-24 hrs. In some experiments, HUVECs were incubated with antibodies and […] caspase-3, -8 or -9 inhibitors or vehicle control (0.5% DMSO). Cells were then incubated with Annexin V-FITC for 15 min at room temperature in the dark. Washed cells were fixed in 1% paraformaldehyde, then incubated in DAPI. The percentage of Annexin positive cells in 5 microscopic fields was determined at 200× magnification by fluorescence microscopy.
HUVECs were plated for 24 h on ECM protein-coated plates in the presence of anti-αvβ3 or anti-α5β1, 1 μM HA1004 (a PKA inhibitor), and anti-αvβ3 or anti-α5β1 with 1 μM HA1004. Cells were stained with FITC-Annexin V or immunoblotted with anti-cleaved caspase 3 antibodies as described above. 5×10^6 HUVECs were electroporated in 300 μl of EGM with 30 μg of DNA (20 μg dnPKA or PKAcat plasmids, 2 μg N1-GFP and 8 μg pBluescript) at 300 V, 450 μF as previously described (Dormond et al. (2001) Nature Med. 7,1041-7). Expression of transgenes was determined by Western blotting of cell lysates with anti-V5 and anti-GFP antibodies. Transfection efficiency was quantified by determining the percent of cells that were co-transfected with GFP-expression vectors. Eighty-percent transfection efficiency was generally achieved using this electroporation method.

[1] = system: Human umbilical vein endothelial cells (HUVEC); assay: Endothelial cell migration assay (transwell) on ECM substrates; type: cell-based; conditions: 250 μM dibutyryl cAMP or transient transfection with expression constructs
Procedure: Human umbilical vein endothelial cells (HUVEC) were grown in Endothelial Growth Medium (containing 2% fetal bovine serum, bFGF and VEGF) (Clonetics, San Diego, Calif.). To render HUVECs quiescent for Rac and/or Rho assays, monolayers of endothelial cells were incubated for 18 hrs in Endothelial Basal Medium supplemented with 0.1% serum (Clonetics). Cell migration and adhesion assays on ECM substrates were performed as previously described in Kim et al. (S. Kim et al., Amer. J. Biol. Chem., 275:33920-33928 (2000); and S. Kim et al., Amer. J. Path., 156:1345-1362 (2000)).
Migration assays were performed essentially as described (Kim, et. al., 2000). […] HUVECS (25,000) were added to the upper chamber of inserts in migration buffer (Hepes buffered M199 medium containing 1% BSA, 2 mM MgCl2, 2 mM CaCl2 and 0.2 mM MnCl2) containing 25 μg/ml of various antibodies. In some experiments, 250 μM dibutyryl cAMP was placed in the upper and lower chambers of the transwell. Cells were allowed to migrate from the upper to the lower chamber for four hours at 37° C. The number of cells which had migrated were counted in three representative high power (200×) fields per insert. The data are presented as number of cells migrating+/−standard error of the mean. Migration assays were similarly performed on transfected cells. In this case, migrated transfected cells were identified by fluorescent microscopy and counted.

[2] = after stimulation of endothelial cells

Structure (SMILES): CCCC(=O)Nc1ncnc2c1ncn2[C@@H]1O[C@@H]2COP(=O)(O)O[C@H]2[C@H]1OC(=O)CCC [dibutyryl cAMP]
- PKA activity in endothelial cells (protein kinase A): rapidly stimulate PKA activity in endothelial cells
- PKA activity in endothelial cells (protein kinase A; listed as cell permeable cAMP): activates PKA
- time at which PKA activation is detected (protein kinase A; [2]): 2 min
- time of maximal PKA activity (protein kinase A; [2]): 15 min
- apoptosis of endothelial cells (annexin V positive cells) (HUVECS): induced apoptosis in endothelial cells
- apoptosis of endothelial cells (annexin V positive cells) (HUVECS; listed as cAMP): significantly induce apoptosis
- endothelial cell migration on vitronectin [1]: quantitatively inhibits endothelial cell migration
